Where two headings read alike, the source gives them in different places.
System: respiratory epithelial cells

IL-13: human IL-13 (Peprotech, Inc.) added to the medium at 50 ng/mL to stimulate respiratory epithelial cells
PR01489 57777_at expression change (lot 1 Day 3 AI): −2.1 | PSCA (63958_at) expression change (lot 1 Day 3 AI): −9.8 | RAC2 32737_at expression change (lot 1 Day 3 AI): −4.3 | RGC32 (57044_s_at) expression change (lot 1 Day 3 AI): −2.7 | SCYB14 (65823_at) expression change (lot 1 Day 3 AI): −4.1 | SEMA4B (46709_at) expression change (lot 1 Day 3 AI): −2.8 | SERPINA3 (75248_at) expression change (lot 1 Day 3 AI): −4.8 | SLC34A2 (48048_at) expression change (lot 1 Day 3 AI): −2.8 | STEAP 40297_at expression change (lot 1 Day 3 AI): −2.2 | TCF8 33439_at expression change (lot 1 Day 3 AI): −2.5 | TGFBI (68339_at) expression change (lot 1 Day 3 AI): −2.9 | TNRC3 41246_at expression change (lot 1 Day 3 AI): −2.9 | TPM1 36790_at expression change (lot 1 Day 3 AI): −2.9 | TPM1 36791_g_at expression change (lot 1 Day 3 AI): −2.5 | TPM1 36792_at expression change (lot 1 Day 3 AI): −2.6 | UGB 39220_at expression change (lot 1 Day 3 AI): −6 | VIM 34091_s_at expression change (lot 1 Day 3 AI): −3.4 | W72331 49486 at expression change (lot 1 Day 3 AI): −8 | AA045020 (44676_at) expression change (lot 1 Day 3 IMM): −3.4 | AA059445 46293_at expression change (lot 1 Day 3 IMM): −3.9 | AA059458 (65626_at) expression change (lot 1 Day 3 IMM): −4.5 | AA456099 (59567_at) expression change (lot 1 Day 3 IMM): −2 | AI050855 (64285_at) expression change (lot 1 Day 3 IMM): −2.6 | AI468340 (72604_at) expression change (lot 1 Day 3 IMM): −2.2 | AI984780 (52384_s_at) expression change (lot 1 Day 3 IMM): −2.8 | AQP5 32909_at expression change (lot 1 Day 3 IMM): −3.1 | AW025596 52637_g_at expression change (lot 1 Day 3 IMM): −3.1 | COL12A1 (44730_at) expression change (lot 1 Day 3 IMM): −2.9 | DSC3a, b 47119_at expression change (lot 1 Day 3 IMM): −2.6 | HIN-1 (46200_at) expression change (lot 1 Day 3 IMM): −3.1 | IVL 36355_at expression change (lot 1 Day 3 IMM): −8.4 | KIAA1376 (62972_at) expression change (lot 1 Day 3 IMM): −2.5 | KLF7 34216_at expression change (lot 1 Day 3 IMM): −3.3 | KRT6B (62998_at) expression change (lot 1 Day 3 IMM): −3.5 | LCE 45605_at expression change (lot 1 Day 3 IMM): −2.1 | LOC51297 (49616_at) expression change (lot 1 Day 3 IMM): −4 | LOC51297 (55440_at) expression change (lot 1 Day 3 IMM): −10.5 | LOC51297 (55442_g_at) expression change (lot 1 Day 3 IMM): −4.9 | LOC55893 (64071_at) expression change (lot 1 Day 3 IMM): −2 | LOC129642 (42065_at) expression change (lot 1 Day 3 IMM): −2 | MGC12536 46924_at expression change (lot 1 Day 3 IMM): −2.1 | MGC14128 (51669_r_at) expression change (lot 1 Day 3 IMM): −2.2 | MGC14597 (46030_at) expression change (lot 1 Day 3 IMM): −3.1 | MGC16207 (65876_at) expression change (lot 1 Day 3 IMM): −4.5 | N71183 52473_at expression change (lot 1 Day 3 IMM): −2.4 | PR01489 57777_at expression change (lot 1 Day 3 IMM): −3.4 | RAC2 32737_at expression change (lot 1 Day 3 IMM): −3.5 | SLC11A3 (45826_at) expression change (lot 1 Day 3 IMM): −2.3 | STEAP 40297_at expression change (lot 1 Day 3 IMM): −2.3 | TCF8 33439_at expression change (lot 1 Day 3 IMM): −2.7 | TPM1 36791_g_at expression change (lot 1 Day 3 IMM): −2.2 | UCP2 37591_at expression change (lot 1 Day 3 IMM): −2.3 | UGB 39220_at expression change (lot 1 Day 3 IMM): −4 | VIM 34091_s_at expression change (lot 1 Day 3 IMM): −3.2 | W72331 49486 at expression change (lot 1 Day 3 IMM): −3.2 | AA045020 (44676_at) expression change (lot 2, Day 3, AI): −5.7 | AA059445 46293_at expression change (lot 2, Day 3, AI): −4.5 | AA059458 (65626_at) expression change (lot 2, Day 3, AI): −5.8 | AA079839 (69289_at) expression change (lot 2, Day 3, AI): −2 | AA160156 (47578_at) expression change (lot 2, Day 3, AI): −2.3 | AA369887 (87539_i_at) expression change (lot 2, Day 3, AI): −3.4 | AA456099 (59567_at) expression change (lot 2, Day 3, AI): −2.1 | AA772055 46104_at expression change (lot 2, Day 3, AI): −2.7 | AA779895 59136_at expression change (lot 2, Day 3, AI): −3.2 | AF052107 38262_at expression change (lot 2, Day 3, AI): −3.8 | AI050855 (64285_at) expression change (lot 2, Day 3, AI): −2.9 | AI264299 (84903_f_at) expression change (lot 2, Day 3, AI): −10.4 | AI432375 (49819_at) expression change (lot 2, Day 3, AI): −2.6 | AI468340 (72604_at) expression change (lot 2, Day 3, AI): −2.4 | AI669212 55436_at expression change (lot 2, Day 3, AI): −3.7 | AI740855 (83076_at) expression change (lot 2, Day 3, AI): −2.7 | AI760772 (58528_s_at) expression change (lot 2, Day 3, AI): −2 | AI770116 (70124_at) expression change (lot 2, Day 3, AI): −2.6 | AI798733 (64163_at) expression change (lot 2, Day 3, AI): −2.3 | AI829641 (84270_at) expression change (lot 2, Day 3, AI): −24.1 | AI917602 (49985_at) expression change (lot 2, Day 3, AI): −2.4 | AI948584 48086_at expression change (lot 2, Day 3, AI): −15.6 | AI984780 (52384_s_at) expression change (lot 2, Day 3, AI): −5.3 | AQP5 32909_at expression change (lot 2, Day 3, AI): −5.1 | AW022213 (79520_at) expression change (lot 2, Day 3, AI): −2.9 | AW025596 52634_at expression change (lot 2, Day 3, AI): −2 | AW025596 52637_g_at expression change (lot 2, Day 3, AI): −7.5 | B4GALT5 56373_at expression change (lot 2, Day 3, AI): −2.2 | BARX2 35425_at expression change (lot 2, Day 3, AI): −2.5 | BPGM (51261_at) expression change (lot 2, Day 3, AI): −2.5 | CBLB 514_at expression change (lot 2, Day 3, AI): −4.6 | CRABP-II 1057_at expression change (lot 2, Day 3, AI): −4.7 | CRABP-II 41783_at expression change (lot 2, Day 3, AI): −5.4 | DHCR24 (74557_s_at) expression change (lot 2, Day 3, AI): −2.1 | DKFZp434K1210 44682_at expression change (lot 2, Day 3, AI): −2.9 | DREV1 (63813_at) expression change (lot 2, Day 3, AI): −2.1 | DSC3a, b 47119_at expression change (lot 2, Day 3, AI): −2.2 | EIF4EBP1 (54152_at) expression change (lot 2, Day 3, AI): −2.3 | FLJ10298 (62490_f_at) expression change (lot 2, Day 3, AI): −3.4 | FLJ10718 52072_at expression change (lot 2, Day 3, AI): −5.5 | FLJ12541 43546_at expression change (lot 2, Day 3, AI): −3.8 | FLJ20048 (49196_at) expression change (lot 2, Day 3, AI): −2.3 | FLJ20373 54030_at expression change (lot 2, Day 3, AI): −2.4 | FLJ23516 47534_at expression change (lot 2, Day 3, AI): −2.6 | GJA1 32531_at expression change (lot 2, Day 3, AI): −6.8 | GSTA3 58023 at expression change (lot 2, Day 3, AI): −5.3 | HEY1 44783_s_at expression change (lot 2, Day 3, AI): −5.4 | HIN-1 (46200_at) expression change (lot 2, Day 3, AI): −28 | HSPC195 44705_at expression change (lot 2, Day 3, AI): −2 | ID1 36619_r_at expression change (lot 2, Day 3, AI): −2.3 | IVL 36355_at expression change (lot 2, Day 3, AI): −3.6 | K1IAA1102 (64345_s_at) expression change (lot 2, Day 3, AI): −3.2

Reference: patent US20050208496A1, “Methods of testing for bronchial asthma or chronic obstructive pulmonary disease” (Genox Research, Inc., priority 2002, published 2005)
